According to US20090274626A1, “TARGETING TNF-alpha CONVERTING ENZYME(TACE)- DEPENDENT GROWTH FACTOR SHEDDING IN CANCER THERAPY” (The Regents of the University of California, priority 2005, published 2009):
Entries after “also recorded” stand apart in the source; their conditions may differ.

How the values were obtained:
[1] = system: T4-2 cells expressing TGFαΔTM; assay: 3D culture of T4-2 cells expressing soluble TGFα (TGFαΔTM): colony size and morphology; type: cell-based, human; conditions: AG1478-treated TGFαΔTM vs proTGFα colonies, P<0.05
Procedure: (§1) For 3D lrECM culture, T4-2 cells were seeded at 21000 cells per cm^2 on top of Matrigel, overlaid with H14 medium containing 5% Matrigel (BD Biosciences, San Jose, Calif.), and treated with 80 nM AG1478, 20 μM TAPI-2 or the relevant vehicle controls.
(§2) Amphotropic retroviruses were generated by transfection (Lipofectamine; Invitrogen, Carlsbad, Calif.) of the Phoenix packaging cell line (a gift of Dr. Gary Nolan, Stanford) with pBM-IRES-Puro or derivatives containing the AREG or TGFα open reading frames. Two million phoenix cells per 6 cm dish were plated the day prior to transfection and transfected with 2 μg of the appropriate retroviral construct. Retrovirus-containing culture medium was harvested after 48 hrs, supplemented with polybrene to 5 μg/ml and added to HMT3522 cells at 30-50% confluence. Pools of stable infectants were selected in 1 μg/ml puromycin.
(§3) Cloning of pro-AREG and pro-TGFα. The open reading frames of these genes were amplified by PCR from T4-2 cDNA. […]
(§4) Quantitation of colony size in the 3D lrECM culture was performed by image analysis. […] The high resolution digital images were then analyzed using NIH Image analysis software and the cross-sectional area of each colony was determined for many colonies. This process was hand-curated to ensure that aggregates of colonies were not measured as a single colony.

[2] = system: T4-2 cells expressing AREGΔTM; assay: 3D culture of T4-2 cells expressing soluble AREG (AREGΔTM): colony size and morphology; type: cell-based, human; conditions: AG1478-treated AREGΔTM vs proAREG colonies, P<0.0001
Procedure: as §1, §2, §3, §4

[3] = system: T4-2 cells; assay: 3D lrECM (Matrigel) culture of T4-2 cells: reversion of malignant phenotype, polarity, colony size; type: cell-based, human
Procedure: as §1
Silencer™ siRNAs against TACE (Ambion, Austin, Tex.) were also transfected in according to the Reverse Transfection protocol of Invitrogen. siRNAs against the following TACE sense strand sequences were transfected either individually (100 nM) or as a pool (33.3 nM each): […]tt (SEQ ID NO: 2), GCAGCAt[…]tt (SEQ ID NO:3) and […]tt (SEQ ID NO: 4). For 3D culture assays, T4-2 cells were trypsinized post-transfection and plated as single cells in Matrigel. Knockdown was assessed by western blot from a parallel transfection 48 hrs post-transfection. Random siRNA sequence was used as a negative control.
Indirect immunofluorescence. Colonies were solubilized from […] culture by shaking in PBS/0.05M EDTA on ice for 30 mins, fixed in 4% paraformaldehyde, permeabilized, stained with anti-α6-integrin (Chemicon, Temecula, Calif.) and counterstained with DAPI.
Quantitation of colony size in the 3D lrECM culture was performed by image analysis. Representative images were captured using a digital camera attached to a phase contrast microscope. The high resolution digital images were then analyzed using NIH Image analysis software and the cross-sectional area of each colony was determined for many colonies. This process was hand-curated to ensure that aggregates of colonies were not measured as a single colony.

[4] = system: T4-2 cells; assay: 3D culture of T4-2 cells in 80 nM AG1478 with various amounts of EGF; type: cell-based, human; conditions: 80 nM AG1478, four days
Procedure: It was shown that increasing amounts of the EGFR ligand, EGF, attenuates T4-2 cells response to 80 nM of AG 1478. Cells were cultured for four days in 80 nM AG1478 and various amounts of EGF. Above a threshold EGF concentration between 0.1-1 ng/ml ([…]), the EGFR inhibitor can no longer revert the malignant phenotype. Thus, reversion of T4-2 cells by EGFR inhibition is overcome by the presence of picomolar amounts of EGFR ligand.

[5] = system: T4-2 cells; assay: Relative proliferation of T4-2 cells with AG 1478 with or without TAPI-2 (sensitization, FIG. 5); type: cell-based, human; conditions: 0.01 μM AG 1478 alone
Procedure: FIG. 5. […] T4-2 cells were allowed to adhere to 48 well plates. Drugs were added at the indicated concentrations. Conditions were analyzed in triplicate. For comparison, all data were normalized to the 100%.
(FIG. 5) In this experiment, T4-2 cells were allowed to adhere to 48 well plates. Drugs, AG 1478 and TAPI-2, were added at various concentrations of 0.001 μM, 0.01 μM, 0.1 μM, 1 μM, 10 μM and 100 μM. Conditions were analyzed in triplicate. For comparison, all data were normalized to the 100%.

[6] = system: patients with advanced pancreatic adenocarcinoma; conditions: cited from earlier work
[7] = system: NSCLC; conditions: single agent in NSCLC; cited from earlier work
[8] = system: MAPK; assay: MAPK activation in S1 cells by conditioned medium from T4-2 cells; type: cell-based, human; conditions: pre-incubation of S1 cells with inhibitor
Procedure: Western blotting. Cells were lysed in 50 mM Tris.HCl pH 7.5, 150 mM NaCl, 0.5% NP40 supplemented with protease and phosphatase inhibitors (Calbiochem, San Diego, Calif.) and clarified by centrifugation. 50 μg of each sample was fractionated by SDS-PAGE, transferred to nitrocellulose membranes and probed with antibodies against the following proteins: phospho-MAPK, Total MAPK, phospho-p70S6-Kinase, (Cell Signaling Technology, MA). E-cadherin (BD Biosciences, CA) was used as a loading control. Blots were developed using Supersignal West Femto (Pierce, Rockland, Ill.). Images were captured using a Fluor Chem 8900 imager (Alpha Innotech, San Leandro, Calif.).

[9] = system: T4-2 cells; assay: T4-2 cell proliferation with Gefitinib in absence or presence of TGFα; type: cell-based, human; conditions: Gefitinib 0 nM, 0.3 nM and 3 nM
Procedure: Control cells were cultured in the absence of TGFα and cells were cultured in the presence of TGFα. Both the control cells and cells grown with TGFα were also cultured with various amounts of Gefitinib at 0 nM, 0.3 nM and 3 nM.

[10] = system: non-small cell lung cancer (NSCLC) patients; conditions: two large trials, chemotherapy with Gefitinib; cited from earlier work
[11] = system: S1 cells; assay: S1 cell proliferation with recombinant EGFR ligands; type: cell-based, human; conditions: recombinant ligand equimolar to EGF (860 μM)
Procedure: Cell culture All reagents were purchased from SIGMA (St. Louis, Mo.) except where otherwise noted. HMT3522 cells were cultivated on 2D and 3D substrata in H14 medium, a 50:50 mix of DMEM/F12 (UCSF Cell culture Facility, San Francisco, Calif.) supplemented with 5 μg/ml prolactin, 250 ng/ml insulin, 1.4×10^−6 M hydrocortisone, 10^−10 M β-estradiol, 2.6 ng/ml sodium selenite and 10 μg/ml transferrin. S1 cells were additionally supplemented with 10 ng/ml EGF. In various experiments, cells were supplemented with AREG, TACE, TGFα. In all cases, AREG and TGFα were used at the same molar concentration as EGF ([…]).
Proliferation assays. HMT3522 cells were seeded in 96 well plates and treated (in triplicate) as described in the figure legends. To determine relative growth, 0.1 volumes of WST cell proliferation analysis reagent (Roche, Indianapolis, Ind.) was added to the medium and its formazan metabolite was measured by absorbance at 460 nm.

[12] = molecular target: transmembrane precursor of Amphiregulin (pro-AREG) (human (cloned from T4-2 human breast cell cDNA)) (UniProt P15514); assay: cell-based or functional assay

In the case of `COc1cc2ncnc(Nc3cccc(Cl)c3)c2cc1OC` [AG1478], the “colony size in presence of the EGFR inhibitor” value [1] is reported as “consistently larger than those formed by cells infected with either empty vector or with the membrane-tethered pro-forms”, the “colony size in presence of the EGFR inhibitor” value [2] is reported as “consistently larger than those formed by cells infected with either empty vector or with the membrane-tethered pro-forms” and the “colony size (cross-sectional area) vs vehicle” value ([3]; 3D culture, four days, p<0.001) is reported as “significantly smaller than those formed by cells treated with vehicle alone; also recorded: significantly different from controls”. The “reversion of the malignant phenotype of T4-2 cells” value ([3]; 3D lrECM culture, 80 nM AG1478 or 20 μM TAPI-2 vs vehicle) was “reversion of the malignant phenotype; also recorded: may be reverted”, the “threshold EGF concentration above which the EGFR inhibitor can no longer revert the malignant phenotype” value ([4]; 3D culture) was 0.1 to 1 ng/mL and the threshold EGF concentration above which the EGFR inhibitor can no longer revert the malignant phenotype ([4]; molar equivalent) was 8.6 to 86 pM. The “reduction in proliferation, EGFR inhibitor alone” value [5] was “no reduction in proliferation”.

In the case of `C#Cc1cccc(Nc2ncnc3cc(OCCOC)c(OCCOC)cc23)c1` [Erlotinib], the “median extension in progression-free survival” value ([6]; added to gemcitabine) is given as “six”, the “median increase in overall survival” value ([6]; added to gemcitabine) is given as 14 days and the survival benefit [6] is given as “statistically significant survival benefit”. The “increase in median progression-free survival time” value [7] was “two”.

For `COc1cc2ncnc(Nc3ccc(F)c(Cl)c3)c2cc1OCCCN1CCOCC1` [Gefitinib], the “activation of MAPK in S1 cells by T4-2 conditioned medium” value [8] is listed as “suppressed”, the “effect of added TGFα on sensitivity of T4-2 cells to Gefitinib (cell proliferation)” value [9] is listed as “reduced the effectiveness” and the “survival vs chemotherapy alone” value [10] is listed as “no better than chemotherapy alone”.

In the case of TGFα: recombinant EGFR ligand TGFα, the “proliferation of non-malignant S1 cells in place of EGF” value [11] is reported as “can substitute for EGF to promote proliferation”.

In the case of “TACE/ADAM17 expressed endogenously in human breast cancer cells (T4-2, MCF-7) (from UniProt P78536 215-824) (enzyme)”, the reduction in AREG shedding from MCF-7 cells after siRNA knockdown of TACE [12] is reported as 90%.

B1: AREG: recombinant EGFR ligand Amphiregulin (protein, UniProt P15514 101-187, looked up)
Amphiregulin: SVRVEQVVKPPQNKTESENTSDKPKRKKKGGKNGKNRRNRKKKNPCNAEFQNFCIHGECKYIEHLEAVTCKCQQEYFGERCGEKSMK
With B1 the “proliferation of non-malignant S1 cells in place of EGF” value [11] was “can substitute for EGF to promote proliferation”.
